Reference: ChEMBL document CHEMBL2203012, “Anti-infective and herbicidal activity of N-substituted 2-aminobenzothiazoles” (Bioorg Med Chem, 2012)
pIC50: −log10 of the molar value.

Key:
[1] = Octanol-water partition coefficient, log P of the compound; type: physicochemical
[2] = (§1) Cytotoxicity against human THP1 cells assessed as cell death after 24 hrs by LDH assay; type: cell-based, THP-1; settings: THP-1 cells, read-out: LD50
[3] = tested on: Staphylococcus epidermidis; experiment: Antibacterial activity against Staphylococcus epidermidis H 6996/08 assessed as growth inhibition after 48 hrs by broth microdilution test; type: functional; settings: H 6996/08, 48 h
[4] = tested on: Mycobacterium kansasii; experiment: Antimycobacterial activity against log-phase Mycobacterium kansasii CIT11/06 assessed as growth inhibition after 5 days by alamar blue assay; type: functional; settings: CIT11/06, 120 h
[5] = tested on: Staphylococcus epidermidis; experiment: Antibacterial activity against Staphylococcus epidermidis H 6996/08 assessed as growth inhibition after 24 hrs by broth microdilution test; type: functional; settings: H 6996/08, 24 h
[6] = tested on: Staphylococcus aureus; experiment: Antibacterial activity against methicillin-resistant Staphylococcus aureus H 5996/08 assessed as growth inhibition after 48 hrs by broth microdilution test; type: functional; settings: H 5996/08, 48 h
[7] = tested on: Staphylococcus aureus; experiment: Antibacterial activity against methicillin-resistant Staphylococcus aureus H 5996/08 assessed as growth inhibition after 24 hrs by broth microdilution test; type: functional; settings: H 5996/08, 24 h
[8] = tested on: Trichophyton mentagrophytes; experiment: Antifungal activity against Trichophyton mentagrophytes 445 assessed as growth inhibition after 120 hrs by CLSI M38-A broth microdilution method; type: functional, organism-based; settings: Trichophyton mentagrophytes, 445, 120 h
[9] = tested on: Trichophyton mentagrophytes; experiment: Antifungal activity against Trichophyton mentagrophytes 445 assessed as growth inhibition after 72 hrs by CLSI M38-A broth microdilution method; type: functional, organism-based; settings: Trichophyton mentagrophytes, 445, 72 h
[10] = tested on: Trichosporon asahii; experiment: Antifungal activity against Trichosporon asahii 1188 assessed as growth inhibition after 48 hrs by CLSI M27-A2 broth microdilution method; type: functional; settings: Trichosporon asahii, 1188, 48 h
[11] = tested on: Trichosporon asahii; experiment: Antifungal activity against Trichosporon asahii 1188 assessed as growth inhibition after 24 hrs by CLSI M27-A2 broth microdilution method; type: functional; settings: Trichosporon asahii, 1188, 24 h
[12] = tested on: Pichia kudriavzevii; experiment: Antifungal activity against Candida krusei E28 assessed as growth inhibition after 48 hrs by CLSI M27-A2 broth microdilution method; type: functional; settings: E28, 48 h
[13] = tested on: Pichia kudriavzevii; experiment: Antifungal activity against Candida krusei E28 assessed as growth inhibition after 24 hrs by CLSI M27-A2 broth microdilution method; type: functional; settings: E28, 24 h
[14] = tested on: Candida albicans; experiment: Antifungal activity against Candida albicans ATCC 44859 assessed as growth inhibition after 48 hrs by CLSI M27-A2 broth microdilution method; type: functional; settings: ATCC 44859, 48 h
[15] = tested on: Candida albicans; experiment: Antifungal activity against Candida albicans ATCC 44859 assessed as growth inhibition after 24 hrs by CLSI M27-A2 broth microdilution method; type: functional; settings: ATCC 44859, 24 h
[16] = Lipophilicity, log K of the compound in methanol-water mixture by RP-HPLC; type: physicochemical
[17] = tested on: THP-1; experiment: as §1; type: cell-based; settings: thp-1, 24 h

Compound | logP [1] | CC50 at 24 h [2] [µM] | IC80 [3] [µM] | IC90 [4] [µM] | IC80 [5] [µM] | IC90 [6] [µM] | IC80 [7] [µM] | pIC50 [8] | pIC50 [9] | IC80 [10] [µM] | IC80 [11] [µM] | IC80 [12] [µM] | IC80 [13] [µM] | IC80 [14] [µM] | IC80 [15] [µM] | log K [16] | LD50 [17]
O=C(Cc1ccccc1)Nc1nc2ccccc2s1 | 3.98 | > 30 | 500 | 256 | 125 | 62.2 | 31.2 | 3.90 | 4.81 | 62.2 | 31.2 | 125 | 62.5 | 7.81 | 3.9 | 0.5413 | 
NNC(=O)c1ccncc1 [ISONIAZID] |  |  |  | < 729 |  |  |  |  |  |  |  |  |  |  |  |  | 
O=C(Nc1nc2ccccc2s1)c1ccccc1 | 4.04 | > 30 | > 500 | 533 | > 500 | 500 | 125 | 3.90 | 4.21 | > 500 | 250 | > 500 | 500 | 125 | 125 | 0.6643 | 
c1ccc(CNc2nc3ccccc3s2)cc1 | 4.46 |  | > 125 |  | > 125 | > 125 | > 125 | < 3.90 | < 3.90 | > 125 | 125 | > 125 | > 125 | > 125 | > 125 | 0.6012 | 
CC(=O)Nc1nc2ccccc2s1 | 2.14 | > 30 | > 500 | 1300 | 250 | 500 | 250 | 3.60 | 3.60 | > 500 | 250 | > 500 | 250 | 125 | 62.5 | 0.3661 | 
OC(Cn1cncn1)(Cn1cncn1)c1ccc(F)cc1F [FLUCONAZOLE] |  |  |  |  |  |  |  | 5.41 | 5.71 | 0.48 | 0.24 | 15.6 | 3.91 | 0.12 | 0.06 |  | 
CCCCC(=O)Nc1nc2ccccc2s1 | 3.63 | > 30 | 62.5 | 1090 | 31.2 | 125 | 31.2 | 4.20 | 4.51 | > 125 | 62.5 | > 125 | 125 | 31.2 | 31.2 | 0.578 | 
O=C(Nc1nc2ccccc2s1)C1CCCCC1 | 4.11 | > 30 | > 125 | 960 | > 125 | > 125 | > 125 | < 3.90 | < 3.90 | > 125 | 125 | > 125 | > 125 | > 125 | > 125 | 0.688 | 
NC(=O)c1cnccn1 [PYRAZINAMIDE] |  |  |  | > 812 |  |  |  |  |  |  |  |  |  |  |  |  | 
CC(C)(C)C(=O)Nc1nc2ccccc2s1 | 4.07 |  | 500 | 1040 | 125 | 500 | 250 | 3.60 | 4.20 | > 500 | > 500 | > 500 | 500 | 250 | 62.5 | 0.5891 | ND(Insoluble)
COC(=O)Nc1nc2ccccc2s1 | 2.72 | 27.5 | 500 | 533 | 125 | 250 | 250 | 3.90 | 3.90 | 500 | 250 | > 250 | > 250 | 250 | 125 | 0.4251 | 
CC1(C)S[C@@H]2[C@H](NC(=O)COc3ccccc3)C(=O)N2[C@H]1C(=O)O [PENICILLIN V] |  |  | 250 |  | 62.5 | 500 | 250 |  |  |  |  |  |  |  |  |  | 
CNc1nc2ccccc2s1 | 2.73 |  | 125 | > 1830 | 125 | 500 | 500 | 4.20 | 4.20 | > 500 | 125 | > 500 | 500 | 250 | 125 | 0.3819 | 
CC(C)CC(=O)Nc1nc2ccccc2s1 | 3.54 | > 30 | > 125 | 480 | > 125 | 125 | 125 | 4.20 | 4.20 | > 125 | 125 | > 125 | > 125 | 125 | 125 | 0.5598 | 
